From paper PMC11946679 (Toxics, 2025)
Read-outs that look alike come from different tables or passages of the source.

How the values were obtained:
[1] = system: human peripheral blood lymphocytes; assay: CBMN cytome assay: micronuclei, nuclear buds, nucleoplasmic bridges; settings: 3 h
Experimental: The CBMN assay was performed in line with standard protocols [8, 23].
To collect the blood sample, lithium heparin-coated tubes were used (BD vacutainer® with LH 170 I.U., Becton Dickinson: BD-Plymouth PL6 78P, UK).
There were 15 experimental groups altogether. The same experimental design was applied in two independent trials, each of which had two replicate cultures per experimental group; therefore, four replicate cultures for every single experimental group were established.
To induce cell division prior to exposure to the test chemicals, lymphocytes were stimulated with the mitogen phytohemagglutinin (PHA). Cultures were kept in a humidified atmosphere of 5% CO2 at 37 °C.
They started 41 h after PHA stimulation and lasted for 3 h at 37 °C.
Upon completion of exposure, lymphocyte cultures were centrifuged at 100× g. […] This procedure was timed for the 44th hour of lymphocyte cultivation, which represents a critical point for adding of cytoB to hinder cytokinesis and obtain binucleated cells. All treated and control cultures were further maintained at 37 °C until the end of the 72nd hour of cultivation, according to the above-mentioned standard protocols.
The first step in the preparation of microscopic slides was harvesting of cells by centrifugation (100× g), followed by treatment with 0.075 mol/L potassium chloride and succeeded by centrifugation. The sediments of cells were repeatedly fixed with methanol/acetic acid (3:1 v/v) followed by centrifugation. The final lymphocyte suspension was pipetted onto clean microscope slides. For staining, 5% aqueous solution of Giemsa dye was used. Slides were screened using a light microscope at 1000× magnification. For morphological discrimination of micronuclei (MNi), nuclear buds (NBs), nucleoplasmic bridges (NPBs) and cells in apoptosis or necrosis, the criteria by Fenech et al. [25] and Fenech [23] were applied. To determine their frequencies, per experimental point, a total of 4 × 1000 binucleated (BN) cells were scored.
This value was first used to estimate the number of MNi required to reach a decrease and an increase considered significant at a 5% significance level.

[2] = system: human peripheral blood lymphocytes; type: cell-based; settings: 3 h
Excerpt: While screening microscope preparations to determine trends in the levels of the main CBMN assay descriptors, nonviable cells were also simultaneously counted on the same slides. Their discrimination was based on the specific morphological features typical for apoptosis or necrosis. It is well known that the biological significance of these phenomena differs deeply, and that the determination of the predominant type of cell death represents a very important issue in each experimental setting.
For each experimental group, we also calculated the ratio between the recorded number of nonviable cells and the cells in apoptosis (Table 5). According to reference, a ratio ≤ 1 means a prevalence of apoptotic events that induce cell death, while a ratio > 1 indicates the acute toxicity of the tested substance that promotes necrosis.

[3] = system: human lymphocytes; set-up: method as in PMID 27461151; settings: galangin at 10-20,000 μmol/L; cited from earlier work
[4] = 5× alone, propolis 6.8 mg/L, galangin […]
[5] = 10× + IRI 9.0 mg/L, propolis 13.6 mg/L, galangin 0.22 mg/L
[6] = 10× alone, propolis 13.6 mg/L, galangin 0.22 mg/L
[7] = scored along with 4000 binucleated cells, 1× + IRI 9.0 mg/L, propolis 1.36 mg/L, galangin 0.02 mg/L
[8] = scored along with 4000 binucleated cells, 5× + IRI 9.0 mg/L, propolis 6.8 mg/L, galangin […]
[9] = scored along with 4000 binucleated cells, 10× + IRI 9.0 mg/L, propolis 13.6 mg/L, galangin 0.22 mg/L

O=c1c(O)c(-c2ccccc2)oc2cc(O)cc(O)c12 [Galangin]
Micronuclei (MNi) Mean (BNMN)1000 ± SD [1, 4]: 2.25 ± 0.50 | Micronuclei (MNi) Mean (MNi)1000 ± SD [1, 4]: 2.25 ± 0.50 | Micronuclei (MNi) Total (BNMN)4000 [1, 4]: 9 | Micronuclei (MNi) Total (MNi)4000 [1, 4]: 9 | Nuclear Buds (NBs) Mean (BNNB)1000 ± SD [1, 4]: 2.25 ± 0.96 | Nuclear Buds (NBs) Mean (NBs)1000 ± SD [1, 4]: 2.25 ± 0.96 | Nuclear Buds (NBs) Total (BNNB)4000 [1, 4]: 9 | Nuclear Buds (NBs) Total (NBs)4000 [1, 4]: 9 | Nucleoplasmic Bridges (NPBs) Mean (BNNPB)1000 ± SD [1, 4]: 0 | Nucleoplasmic Bridges (NPBs) Mean (NPBs)1000 ± SD [1, 4]: 0 | Nucleoplasmic Bridges (NPBs) Total (BNNPB)4000 [1, 4]: 0 | Nucleoplasmic Bridges (NPBs) Total (NPBs)4000 [1, 4]: 0 | Micronuclei (MNi) Mean (MNi)1000 ± SD ([1]; 5× alone, propolis 6.8 mg/L, galangin […], listed as galangin): 2.25 | Distribution of BNMN Cells with 1 MN [1, 5]: 44 c,p1,p5, p10,g1,g5, g10,p1+iri, p5+iri, p10+iri | Distribution of BNMN Cells with 2 MN [1, 5]: 5 | Distribution of BNMN Cells with 3 MN [1, 5]: 0 | Distribution of BNMN Cells with 4 MN [1, 5]: 0 | Distribution of BNNB Cells with 1 NB [1, 5]: 30 c,p1,p5, p10,g1,g5,g10, p1+iri | Distribution of BNNB Cells with 2 NB [1, 5]: 0 | Distribution of BNNPB Cells with 1 NPB [1, 5]: 0 | Distribution of BNNPB Cells with 2 NPB [1, 5]: 0 | Micronuclei (MNi) Mean (BNMN)1000 ± SD [1, 5]: 12.25 ± 0.82 c,p1,p5,p10,g1,g5, g10,p1+iri, p5+iri, p10+iri | Micronuclei (MNi) Mean (MNi)1000 ± SD [1, 5]: 13.50 ± 1.29 c,p1,p5,p10,g1,g5,g10, p1+iri, p5+iri, p10+iri | Micronuclei (MNi) Total (BNMN)4000 [1, 5]: 49 c,p1,p5,p10,g1,g5,g10, p1+iri, p5+iri, p10+iri | Micronuclei (MNi) Total (MNi)4000 [1, 5]: 54 c,p1,p5,p10,g1,g5, g10,p1+iri, p5+iri, p10+iri | Nuclear Buds (NBs) Mean (BNNB)1000 ± SD [1, 5]: 7.50 ± 1.29 c,p1,p5,p10, g1,g5,g10, p1+iri | Nuclear Buds (NBs) Mean (NBs)1000 ± SD [1, 5]: 7.50 ± 1.29 c,p1,p5,p10,g1,g5,g10,p1+iri | Nuclear Buds (NBs) Total (BNNB)4000 [1, 5]: 30 c,p1,p5,p10, g1,g5,g10, p1+iri | Nuclear Buds (NBs) Total (NBs)4000 [1, 5]: 30 c,p1,p5, p10,g1,g5, g10,p1+iri | Nucleoplasmic Bridges (NPBs) Mean (BNNPB)1000 ± SD [1, 5]: 0 | Nucleoplasmic Bridges (NPBs) Mean (NPBs)1000 ± SD [1, 5]: 0 | Nucleoplasmic Bridges (NPBs) Total (BNNPB)4000 [1, 5]: 0 | Nucleoplasmic Bridges (NPBs) Total (NPBs)4000 [1, 5]: 0 | Micronuclei (MNi) Mean (MNi)1000 ± SD ([1]; 10× + IRI 9.0 mg/L, propolis 13.6 mg/L, galangin 0.22 mg/L, listed as galangin): 13.50 | Distribution of BNMN Cells with 1 MN [1, 6]: 7 | Distribution of BNMN Cells with 2 MN [1, 6]: 0 | Distribution of BNMN Cells with 3 MN [1, 6]: 0 | Distribution of BNMN Cells with 4 MN [1, 6]: 0 | Distribution of BNNB Cells with 1 NB [1, 6]: 9 | Distribution of BNNB Cells with 2 NB [1, 6]: 0 | Distribution of BNNPB Cells with 1 NPB [1, 6]: 0 | Distribution of BNNPB Cells with 2 NPB [1, 6]: 0 | Micronuclei (MNi) Mean (BNMN)1000 ± SD [1, 6]: 1.75 ± 0.50 | Micronuclei (MNi) Mean (MNi)1000 ± SD [1, 6]: 1.75 ± 0.50 | Micronuclei (MNi) Total (BNMN)4000 [1, 6]: 7 | Micronuclei (MNi) Total (MNi)4000 [1, 6]: 7 | Nuclear Buds (NBs) Mean (BNNB)1000 ± SD [1, 6]: 2.25 ± 0.50 | Nuclear Buds (NBs) Mean (NBs)1000 ± SD [1, 6]: 2.25 ± 0.50 | Nuclear Buds (NBs) Total (BNNB)4000 [1, 6]: 9 | Nuclear Buds (NBs) Total (NBs)4000 [1, 6]: 9 | Nucleoplasmic Bridges (NPBs) Mean (BNNPB)1000 ± SD [1, 6]: 0 | Nucleoplasmic Bridges (NPBs) Mean (NPBs)1000 ± SD [1, 6]: 0 | Nucleoplasmic Bridges (NPBs) Total (BNNPB)4000 [1, 6]: 0 | Nucleoplasmic Bridges (NPBs) Total (NPBs)4000 [1, 6]: 0 | Micronuclei (MNi) Mean (MNi)1000 ± SD ([1]; 10× alone, propolis 13.6 mg/L, galangin 0.22 mg/L, listed as galangin): 1.75 | Ratio (nonviable cells and cells in apoptosis) ([2]; 1× + IRI 9.0 mg/L, propolis 1.36 mg/L, galangin 0.02 mg/L): 0.5 | Ratio (nonviable cells and cells in apoptosis) ([2]; 5× + IRI 9.0 mg/L, propolis 6.8 mg/L, galangin […]): 0.5 | Ratio (nonviable cells and cells in apoptosis) [2, 5]: 0.6 | Ratio (nonviable cells and cells in apoptosis) ([2]; male, human, 0.02 mg/L): 0.5 | Total No. of Cells in Apoptosis ([2]; male, human, 0.02 mg/L): 7 | Total No. of Nonviable Cells ([2]; male, human, 0.02 mg/L): 14 | Ratio (nonviable cells and cells in apoptosis) ([2]; male, human, 0.22 mg/L): 0.7 | Total No. of Cells in Apoptosis ([2]; male, human, 0.22 mg/L): 8 | Total No. of Nonviable Cells ([2]; male, human, 0.22 mg/L): 12 | Total No. of Cells in Apoptosis [2, 7]: 28 | Total No. of Nonviable Cells [2, 7]: 52 | Total No. of Cells in Apoptosis [2, 8]: 23 | Total No. of Nonviable Cells [2, 8]: 42 | Total No. of Cells in Apoptosis [2, 9]: 19 | Total No. of Nonviable Cells [2, 9]: 34 | genotoxicity [3]: not genotoxic per se
